Calls of active or inactive are those of the source. The calls are words filed in the database; no cut-off is given here.
Experiments:
[1] = Acute toxicity in Kunming mouse assessed as effect on heart at 2 g/Kg, IG measured after 2 weeks by H&E staining based analysis; type: tissue-based; details: in vivo, po, 2000 mg/kg, 336 h
[2] = target: T1, Lysine-specific demethylase 5B (Homo sapiens, UniProt Q9UGL1); assay: Inhibition of KDM5B (unknown origin) at 10 uM relative to control
[3] = MRT (0 to t) in ICR mouse at 25 mg/kg, IG measured at 0.083 to 24 hrs by LC-MS analysis; type: ADME, organism-based; details: in vivo, po, time 0.083-24 hrs
PC-3 [4] = assay: Antitumor activity against human PC-3 cells xenografted in BALB/C nude mice assessed as decrease in tumor volume at 25 to 50 mg/kg, IG administered for 25 days; type: functional, organism-based; details: dose 25-50 mg/kg, time 25.0 day
PC-3 [5] = assay: Induction of cell cycle arrest in human PC-3 cells assessed as increase in G2/M phase cell ratio at 5 uM incubated for 24 hrs by PI/RNase A staining based flow cytometric analysis (reference value: 16.07%); type: functional
PC-3 [6] = assay: Induction of cell cycle arrest in human PC-3 cells assessed as increase in G2/M phase cell ratio at 2.5 uM incubated for 24 hrs by PI/RNase A staining based flow cytometric analysis (reference value: 16.07%); type: functional
PC-3 [7] = assay: Induction of apoptosis in human PC-3 cells assessed as necrotic cells at 10 uM incubated for 72 hrs by Annexin V-FITC/PI staining based flow cytometric analysis (reference value: 5.01%); type: functional
[8] = target: T1, Lysine-specific demethylase 5B; assay: Inhibition of KDM5B in human PC-3 cells assessed as H3K4me1 accumulation incubated for 72 hrs by Western blot analysis; type: cell-based
PC-3 [9] = assay: Inhibition of PI3K/AKT pathway in human PC-3 cells assessed as decrease in AKT phosphorylation at Thr308 residue at 2.5 to 10 uM by Western blot analysis; type: cell-based; details: dose 2.5-10 µM
[10] = Acute toxicity in Kunming mouse assessed as effect on liver at 2 g/Kg, IG measured after 2 weeks by H&E staining based analysis; type: tissue-based; details: in vivo, po, 2000 mg/kg, 336 h
[11] = Tmax in ICR mouse at 5 mg/kg, iv measured at 0.083 to 24 hrs by LC-MS analysis; type: ADME, organism-based; details: in vivo, time 0.083-24 hrs
PC-3 [12] = assay: Inhibition of PI3K/AKT pathway in human PC-3 cells assessed as decrease in P85 level at 2.5 to 5 uM by Western blot analysis; type: cell-based; details: dose 2.5-5 µM
[13] = Half-life in ICR mouse at 25 mg/kg, IG measured at 0.083 to 24 hrs by LC-MS analysis; type: ADME, organism-based; details: in vivo, po, time 0.083-24 hrs
PC-3 [14] = assay: Inhibition of PI3K/AKT pathway in human PC-3 cells assessed as decrease in P85 level at 10 to 20 uM by Western blot analysis; type: cell-based; details: dose 10-20 µM
[15] = Acute toxicity in Kunming mouse assessed as effect on behavioral abnormalities at 2 g/Kg, IG measured after 2 weeks; details: in vivo, po, 2000 mg/kg, 336 h
[16] = Acute toxicity in Kunming mouse assessed as prostate gland damage at 2 g/Kg, IG measured after 2 weeks by H&E staining based analysis; type: tissue-based; details: in vivo, po, 2000 mg/kg, 336 h
LNCaP = assay: Antiproliferative activity against human LNCaP cells assessed as inhibition of cell proliferation incubated for 72 hrs by MTT assay; type: functional, cell-based
PC-3 [17] = assay: Induction of apoptosis in human PC-3 cells assessed as late apoptotic cells at 2.5 uM incubated for 72 hrs by Annexin V-FITC/PI staining based flow cytometric analysis (reference value: 1.05%); type: functional
DU-145 = assay: Antiproliferative activity against human DU-145 cells assessed as inhibition of cell proliferation incubated for 72 hrs by MTT assay; type: functional, cell-based; details: DU-145, 72 h
[18] = AUC (0 to t) in ICR mouse at 25 mg/kg, IG measured at 0.083 to 24 hrs by LC-MS analysis; type: ADME, organism-based; set-up: dose 25 mg/kg, time upper 24 hrs, time lower 0.083 hrs, route ig; details: in vivo, po
[19] = Cmax in ICR mouse at 5 mg/kg, iv measured at 0.083 to 24 hrs by LC-MS analysis; type: ADME, organism-based; set-up: time upper 24 hrs, time lower 0.083 hrs, dose 5 mg/kg, route iv; details: in vivo
[20] = Toxicity in BALB/C nude mouse xenografted with human PC-3 cells assessed as kidney damage at 25 to 50 mg/kg, IG administered for 25 days by H&E staining based analysis; type: organism-based; details: in vivo, po, 600 h, dose 25-50 mg/kg, time 25 day
PC-3 [21] = assay: Inhibition of colony formation in human PC-3 cells incubated for 72 hrs by crystal violet staining based microplate reader analysis; type: functional, cell-based; details: dose 1.25-5 µM
PC-3 [22] = assay: Induction of apoptosis in human PC-3 cells assessed as early apoptotic cells at 2.5 uM incubated for 72 hrs by Annexin V-FITC/PI staining based flow cytometric analysis (reference value: 3.01%); type: functional
PC-3 [23] = assay: Inhibition of PI3K/AKT pathway in human PC-3 cells assessed as decrease in AKT phosphorylation at Thr308 residue at 20 uM by Western blot analysis relative to control; type: cell-based
PC-3 [24] = assay: Antitumor activity against human PC-3 cells xenografted in BALB/C nude mice assessed as decrease in tumor volume at 50 mg/kg, IG measured after 13 days; type: functional, organism-based; details: time 13.0 day
[25] = Acute toxicity in Kunming mouse assessed as effect on weight at 2 g/Kg, IG measured after 2 weeks; details: in vivo, po, 2000 mg/kg, 336 h
[26] = AUC (0 to t) in ICR mouse at 5 mg/kg, iv measured at 0.083 to 24 hrs by LC-MS analysis; type: ADME, organism-based; set-up: time lower 0.083 hrs, dose 5 mg/kg, time upper 24 hrs, route iv; details: in vivo
[27] = target: T1, Lysine-specific demethylase 5B; assay: Inhibition of KDM5B in human PC-3 cells assessed as H3K4me3 accumulation incubated for 72 hrs by Western blot analysis; type: cell-based
[28] = Toxicity in BALB/C nude mouse xenografted with human PC-3 cells assessed as prostate gland damage at 25 to 50 mg/kg, IG administered for 25 days by H&E staining based analysis; type: organism-based; details: in vivo, po, 600 h, dose 25-50 mg/kg, time 25 day
[29] = Half-life in ICR mouse at 5 mg/kg, iv measured at 0.083 to 24 hrs by LC-MS analysis; type: ADME, organism-based; details: in vivo, time 0.083-24 hrs
[30] = Toxicity in BALB/C nude mouse xenografted with human PC-3 cells assessed as liver damage at 25 to 50 mg/kg, IG administered for 25 days by H&E staining based analysis; type: organism-based; details: in vivo, po, 600 h, dose 25-50 mg/kg, time 25 day
PC-3 [31] = assay: Inhibition of PI3K/AKT pathway in human PC-3 cells assessed as decrease in P110alpha level at 2.5 to 5 uM by Western blot analysis; type: cell-based; details: dose 2.5-5 µM
PC-3 [32] = assay: Induction of apoptosis in human PC-3 cells assessed as early apoptotic cells at 5 uM incubated for 72 hrs by Annexin V-FITC/PI staining based flow cytometric analysis (reference value: 3.01%); type: functional
PC-3 [33] = assay: Induction of apoptosis in human PC-3 cells assessed as late apoptotic cells at 5 uM incubated for 72 hrs by Annexin V-FITC/PI staining based flow cytometric analysis (reference value: 1.05%); type: functional
PC-3 [34] = assay: Antitumor activity against human PC-3 cells assessed as inhibition of cell proliferation incubated for 72 hrs by MTT assay; type: functional, cell-based; details: PC-3, 72 h
[35] = Toxicity in BALB/C nude mouse xenografted with human PC-3 cells assessed as lung damage at 25 to 50 mg/kg, IG administered for 25 days by H&E staining based analysis; type: organism-based; details: in vivo, po, 600 h, dose 25-50 mg/kg, time 25 day

T1 sequence (Q9UGL1 whole entry): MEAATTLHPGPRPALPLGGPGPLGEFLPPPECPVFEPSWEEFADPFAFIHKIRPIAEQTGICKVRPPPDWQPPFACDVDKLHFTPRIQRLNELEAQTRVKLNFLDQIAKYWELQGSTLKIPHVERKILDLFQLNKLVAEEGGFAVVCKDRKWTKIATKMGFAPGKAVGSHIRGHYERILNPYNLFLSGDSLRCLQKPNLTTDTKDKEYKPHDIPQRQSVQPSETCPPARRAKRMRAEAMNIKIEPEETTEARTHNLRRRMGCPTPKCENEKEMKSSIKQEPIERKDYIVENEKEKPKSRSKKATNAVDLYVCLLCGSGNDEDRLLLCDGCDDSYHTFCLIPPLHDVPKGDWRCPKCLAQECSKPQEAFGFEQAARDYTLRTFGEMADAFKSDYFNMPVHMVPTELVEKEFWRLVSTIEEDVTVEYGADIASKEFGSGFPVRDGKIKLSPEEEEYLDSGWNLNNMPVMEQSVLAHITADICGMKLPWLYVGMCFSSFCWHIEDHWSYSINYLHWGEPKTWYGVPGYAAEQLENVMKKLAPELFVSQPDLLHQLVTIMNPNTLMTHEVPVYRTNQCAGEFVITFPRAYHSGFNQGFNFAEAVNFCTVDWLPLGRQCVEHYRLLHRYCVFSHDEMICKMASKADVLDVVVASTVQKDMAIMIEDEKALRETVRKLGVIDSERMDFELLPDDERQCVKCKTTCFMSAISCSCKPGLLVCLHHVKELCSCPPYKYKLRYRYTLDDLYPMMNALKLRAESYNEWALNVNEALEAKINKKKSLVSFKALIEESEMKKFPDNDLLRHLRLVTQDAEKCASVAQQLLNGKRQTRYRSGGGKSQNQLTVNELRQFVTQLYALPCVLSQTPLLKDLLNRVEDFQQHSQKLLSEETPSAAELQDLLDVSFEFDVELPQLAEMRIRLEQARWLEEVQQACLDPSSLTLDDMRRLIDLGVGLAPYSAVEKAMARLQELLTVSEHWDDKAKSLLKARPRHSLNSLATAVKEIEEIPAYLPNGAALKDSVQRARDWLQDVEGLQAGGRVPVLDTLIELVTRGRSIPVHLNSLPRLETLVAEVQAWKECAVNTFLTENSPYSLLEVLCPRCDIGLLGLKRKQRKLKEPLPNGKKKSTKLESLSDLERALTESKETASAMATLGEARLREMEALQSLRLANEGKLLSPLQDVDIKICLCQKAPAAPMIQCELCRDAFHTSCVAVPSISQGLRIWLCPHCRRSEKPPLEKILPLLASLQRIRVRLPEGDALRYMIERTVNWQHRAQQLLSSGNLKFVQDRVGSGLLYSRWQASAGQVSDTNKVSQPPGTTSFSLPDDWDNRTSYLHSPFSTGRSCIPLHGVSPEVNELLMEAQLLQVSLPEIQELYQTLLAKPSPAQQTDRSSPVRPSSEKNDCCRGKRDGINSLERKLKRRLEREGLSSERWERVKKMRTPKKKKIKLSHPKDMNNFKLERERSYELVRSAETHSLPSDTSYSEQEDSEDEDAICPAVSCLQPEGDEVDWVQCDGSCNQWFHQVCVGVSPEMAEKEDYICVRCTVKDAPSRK

## CN1CCN(CCNC(=O)c2cc(-c3ccc4ccccc4c3)nc3c2cnn3-c2ccccc2)CC1
[1]
  Activity: Non-Toxic
[2]
  inhibition: 102%
[3]
  MRT last: 6.9 h
PC-3 [4]
  Activity: Active
PC-3 [5]
  Activity: 27.47%
PC-3 [6]
  Activity: 18.17%
PC-3 [7]
  Activity: 23.96%
[8]
  inhibition: Dose-Dependent Effect
PC-3 [9]
  inhibition: inactive
[10]
  Activity: Non-Toxic
[11]
  Tmax: 4.98 min
PC-3 [12]
  inhibition: inactive
[13]
  half-life: 318 min
PC-3 [14]
  inhibition: Active
[15]
  Activity: Non-Toxic
[16]
  Activity: Non-Toxic
LNCaP
  IC50: 4.34 µM
PC-3 [17]
  Activity: 5.94%
DU-145
  IC50: 9.53 µM
[18]
  AUCt: 3024.33 ng·h/mL
[19]
  Cmax: 551.67 ng/mL
[20]
  Activity: Non-Toxic
PC-3 [21]
  inhibition: Dose-Dependent Effect
PC-3 [22]
  Activity: 0.7%
PC-3 [23]
  inhibition: 60%
PC-3 [24]
  Activity: Active
[25]
  Activity: Non-Toxic
[26]
  AUCt: 44437.67 ng·h/mL
[27]
  inhibition: Dose-Dependent Effect
[28]
  Activity: Non-Toxic
[29]
  t1/2: 2.95 h
[30]
  Activity: Non-Toxic
PC-3 [31]
  inhibition: inactive
PC-3 [32]
  Activity: 0.64%
PC-3 [33]
  Activity: 7.54%
PC-3 [34]
  IC50: 2180 nM
[35]
  Activity: Non-Toxic
